Our source for the ED50, IC50 and ED₅₀ values is patent EP0367895A1, “Pyrimidinyl-substituted hydroxyacids, lactones and esters and pharmaceutical compositions containing them” (SANDOZ AG, priority 1988, dated 1990).

The subject of assay [1] is 3β-hydroxysterol synthesis. Briefly: Test B: in vivo cholesterol biosynthesis inhibition test (as described in EP 114 027). Particulars: dose calculated to produce a 50% inhibition of 3β-hydroxysterol synthesis, test doses between 0.01 mg/kg and 10 mg/kg; for ED50: read-out: ED₅₀. As for the experimental part: Test B. In vivo cholesterol biosynthesis inhibition test: as described in EP 114 027:
ED₅₀ is the dose of the test substance calculated to produce a 50% inhibition of 3β-hydroxysterol synthesis. The studies are run to test doses of between 0.01 mg/kg and 10 mg/kg.

The target in assay [2] is T1, 3-hydroxy-3-methylglutaryl coenzyme A (HMG-CoA) reductase (Rattus norvegicus, UniProt P51639).
T1 construct: In vitro microsomal assay of; from tissue; host or cells: Microsomes; it is liver according to own knowledge of EP 114 027
T1 sequence (P51639 1-887): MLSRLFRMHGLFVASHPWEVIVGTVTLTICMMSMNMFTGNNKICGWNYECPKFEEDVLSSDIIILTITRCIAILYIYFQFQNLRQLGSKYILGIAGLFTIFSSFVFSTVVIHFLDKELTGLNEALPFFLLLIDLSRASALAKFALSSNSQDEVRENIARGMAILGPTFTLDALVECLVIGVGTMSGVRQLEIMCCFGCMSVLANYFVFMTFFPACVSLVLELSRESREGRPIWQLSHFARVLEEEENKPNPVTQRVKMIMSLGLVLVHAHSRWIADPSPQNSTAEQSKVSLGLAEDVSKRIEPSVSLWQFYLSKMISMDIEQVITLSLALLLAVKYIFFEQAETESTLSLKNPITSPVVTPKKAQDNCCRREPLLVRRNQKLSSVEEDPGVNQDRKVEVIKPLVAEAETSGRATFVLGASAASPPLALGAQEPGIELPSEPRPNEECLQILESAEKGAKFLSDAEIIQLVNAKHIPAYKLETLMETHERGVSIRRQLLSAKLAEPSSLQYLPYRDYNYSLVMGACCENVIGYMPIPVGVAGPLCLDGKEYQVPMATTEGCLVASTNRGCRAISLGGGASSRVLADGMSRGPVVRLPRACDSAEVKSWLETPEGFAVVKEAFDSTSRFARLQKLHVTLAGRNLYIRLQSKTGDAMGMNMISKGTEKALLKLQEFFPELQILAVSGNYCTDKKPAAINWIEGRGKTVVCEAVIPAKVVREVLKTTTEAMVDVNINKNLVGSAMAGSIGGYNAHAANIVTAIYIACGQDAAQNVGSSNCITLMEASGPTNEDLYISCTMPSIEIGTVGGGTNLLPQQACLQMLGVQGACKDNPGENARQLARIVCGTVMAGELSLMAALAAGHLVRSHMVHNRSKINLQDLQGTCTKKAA
Briefly: Test A: in vitro microsomal assay of HMG-CoA reductase inhibition (as described in EP 114 027). The class given is biochemical. Particulars: concentration calculated to produce a 50% inhibition of HMG-CoA reductase activity; tests run between 0.05 µM and 1000 µM; read-out: IC₅₀. As for the experimental part: Test A. In vitro microsomal assay of 3-hydroxy-3-methylglutaryl coenzyme A (HMG-CoA) reductase inhibition: as described in EP 114 027:
IC₅₀ is the concentration of the test substance in the assay system calculated to produce a 50% inhibition of HMG-CoA reductase activity. The tests are run at concentrations of test substance between 0.05 µM and 1000 µM.

For `CC(C)c1nc(N(C)C)nc(-c2ccc(F)cc2)c1/C=C/[C@@H](O)C[C@@H](O)CC(=O)[O-].[Na+]` [Example 1b), sodium (3R,5S)-[E]-7-[4-(4-fluoro-phenyl)-6-(1-methylethyl)-2-(dimethylamino)pyrimidin-5-yl]-3,5-dihydroxy-6-heptenoate], in assay [1], the ED50 was 0.028 mg/kg. In assay [2], the IC50 is 26 nM.

As to `CC(C)c1nc(N(C)C)nc(-c2ccncc2)c1/C=C/[C@@H](O)C[C@@H](O)CC(=O)O` [Example 11d], the ED50 in assay [1] is 0.04 mg/kg. Moreover, the IC50 in assay [2] is 39 nM.

Regarding Mevinolin [reference compound], the ED₅₀ in assay [1] is reported as 0.41 mg/kg.
